Experimental findings from US20230143604A1, “QW DOSING OF GIP RECEPTOR AGONIST PEPTIDE COMPOUNDS AND USES THEREOF” (TAKEDA PHARMACEUTICAL COMPANY LIMITED, priority 2020, published 2023) are described below.

By solubility is commonly meant the concentration that dissolves in the medium under given conditions. Lower therefore signals little dissolved substance.

Structures are written as SMILES. Starred links: 1 amine or outer side, 2 acyl side, 3 side chain; linkers in the order of their positions; H or OH if unused. Non-standard residues stand in square brackets, D forms with d. Residues, ends and D or L forms follow the SMILES beside them. Groups on a side chain read outwards from the residue. *: point of attachment. C18 diacid = O=C(O)CCCCCCCCCCCCCCCCC(=O)*; γGlu = O=C(O)[C@H](CCC(=O)[*:2])N[*:1]; NMeY = CN[C@@H](Cc1ccc(O)cc1)C(=O)O; AEEA = NCCOCCOCC(=O)O; Aib = CC(C)(N)C(=O)O

A short description of this data set: physchem. The essentials:
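3 mg of peptide treated with 100 μL portions of 200 mM phosphate buffer pH 7.4, sonicating/vortexing up to 1 min, with further buffer added until fully dissolved. Solubility then quantified by HPLC.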

[1] abbreviates: pH 7.4, aqueous buffer, pH 7.4 Phosphate Buffer - Solubility, 200 mM Phosphate buffer pH 7.4.
[2] abbreviates: pH 7.4, solubility in phosphate buffer at pH 7.4, 200 mM phosphate buffer pH 7.4.

`CC[C@H](C)[C@H](NC(=O)[C@H](CO)NC(=O)[C@H](Cc1ccc(O)cc1)NC(=O)[C@H](CC(=O)O)NC(=O)[C@H](CO)NC(=O)[C@@H](NC(=O)[C@H](Cc1ccccc1)NC(=O)[C@@H](NC(=O)CNC(=O)[C@H](CCC(=O)O)NC(=O)C(C)(C)NC(=O)[C@H](Cc1ccc(O)cc1)NC)[C@@H](C)O)[C@@H](C)CC)C(=O)N[C@@H](C)C(=O)N[C@@H](CCCCNC(=O)CNC(=O)CNC(=O)CNC(=O)CNC(=O)CC[C@H](NC(=O)CCCCCCCCCCCCCCCCC(=O)O)C(=O)O)C(=O)N[C@@H](CC(=O)O)C(=O)N[C@@H](CO)C(=O)NC(C)(C)C(=O)N[C@@H](C)C(=O)N[C@@H](CCC(N)=O)C(=O)NC(C)(C)C(=O)N[C@@H](CC(=O)O)C(=O)N[C@@H](Cc1ccccc1)C(=O)N[C@H](C(=O)N[C@@H](CC(N)=O)C(=O)N[C@@H](Cc1c[nH]c2ccccc12)C(=O)N[C@@H](CC(C)C)C(=O)N[C@@H](CC(C)C)C(=O)N[C@@H](C)C(=O)N[C@@H](CCC(N)=O)C(=O)N[C@@H](CCCCN)C(=O)NCC(=O)O)C(C)C` [Compound 79] (H-[NMeY][Aib]EGTFISDYSIAK([Gly-Gly-Gly-Gly-γGlu-C18 diacid])DS[Aib]AQ[Aib]DFVNWLLAQKG-OH): the solubility is not below 15 mg/mL (pH 7.4) and not below 30 mg/mL (pH 7.4, aqueous buffer).

As for `CC[C@H](C)[C@H](NC(=O)[C@H](CO)NC(=O)[C@H](Cc1ccc(O)cc1)NC(=O)[C@H](CC(=O)O)NC(=O)[C@H](CO)NC(=O)[C@@H](NC(=O)[C@H](Cc1ccccc1)NC(=O)[C@@H](NC(=O)CNC(=O)[C@H](CCC(=O)O)NC(=O)C(C)(C)NC(=O)[C@H](Cc1ccc(O)cc1)NC)[C@@H](C)O)[C@@H](C)CC)C(=O)N[C@@H](C)C(=O)N[C@@H](CCCCNC(=O)CNC(=O)CNC(=O)CNC(=O)CNC(=O)CC[C@H](NC(=O)CCCCCCCCCCCCCCCCC(=O)O)C(=O)O)C(=O)N[C@@H](CC(=O)O)C(=O)N[C@@H](CCCNC(=N)N)C(=O)NC(C)(C)C(=O)N[C@@H](C)C(=O)N[C@@H](CCC(N)=O)C(=O)NC(C)(C)C(=O)N[C@@H](CC(=O)O)C(=O)N[C@@H](Cc1ccccc1)C(=O)N[C@H](C(=O)N[C@@H](CC(N)=O)C(=O)N[C@@H](Cc1c[nH]c2ccccc12)C(=O)N[C@@H](CC(C)C)C(=O)N[C@@H](CC(C)C)C(=O)N[C@@H](C)C(=O)N[C@@H](CCC(N)=O)C(=O)N[C@@H](CCCCN)C(=O)NCC(=O)O)C(C)C` [Compound 80] (H-[NMeY][Aib]EGTFISDYSIAK([Gly-Gly-Gly-Gly-γGlu-C18 diacid])DR[Aib]AQ[Aib]DFVNWLLAQKG-OH), the solubility by setting is: (pH 7.4) not below 15 mg/mL; (pH 7.4, aqueous buffer) not below 30 mg/mL.

Molecule `CC[C@H](C)[C@H](NC(=O)[C@H](Cc1ccccc1)NC(=O)[C@@H](NC(=O)CNC(=O)[C@H](CCC(=O)O)NC(=O)C(C)(C)NC(=O)[C@H](Cc1ccc(O)cc1)NC)[C@@H](C)O)C(=O)N[C@@H](CO)C(=O)N[C@@H](CC(=O)O)C(=O)N[C@@H](Cc1ccc(O)cc1)C(=O)N[C@@H](CO)C(=O)N[C@H](C(=O)NC(C)(C)C(=O)N[C@@H](CC(C)C)C(=O)N[C@@H](CC(=O)O)C(=O)N[C@@H](CCCNC(=N)N)C(=O)NC(C)(C)C(=O)N[C@@H](C)C(=O)N[C@@H](CCC(N)=O)C(=O)NC(C)(C)C(=O)N[C@@H](CCCCNC(=O)COCCOCCNC(=O)COCCOCCNC(=O)CC[C@H](NC(=O)CC[C@H](NC(=O)CCCCCCCCCCCCCCCCC(=O)O)C(=O)O)C(=O)O)C(=O)N[C@@H](Cc1ccccc1)C(=O)N[C@H](C(=O)N[C@@H](CC(N)=O)C(=O)N[C@@H](Cc1c[nH]c2ccccc12)C(=O)N[C@@H](CC(C)C)C(=O)N[C@@H](CC(C)C)C(=O)N[C@@H](C)C(=O)N[C@@H](CCC(N)=O)C(=O)N[C@@H](CO)C(=O)N1CCC[C@H]1C(=O)NCC(=O)O)C(C)C)[C@@H](C)CC` [Compound 85] (H-[NMeY][Aib]EGTFISDYSI[Aib]LDR[Aib]AQ[Aib]K([AEEA-AEEA-γGlu-γGlu-C18 diacid])FVNWLLAQSPG-OH) yielded a solubility (pH 7.4) not below 15 mg/mL and a solubility (pH 7.4, aqueous buffer) not below 30 mg/mL.

In turn, `CC[C@H](C)[C@H](NC(=O)[C@H](CO)NC(=O)[C@H](Cc1ccc(O)cc1)NC(=O)[C@H](CC(=O)O)NC(=O)[C@H](CO)NC(=O)[C@@H](NC(=O)[C@H](Cc1ccccc1)NC(=O)[C@@H](NC(=O)CNC(=O)[C@H](CCC(=O)O)NC(=O)C(C)(C)NC(=O)[C@H](Cc1ccc(O)cc1)NC)[C@@H](C)O)[C@@H](C)CC)C(=O)N[C@@H](C)C(=O)N[C@@H](CC(C)C)C(=O)N[C@@H](CC(=O)O)C(=O)N[C@@H](CCCNC(=N)N)C(=O)NC(C)(C)C(=O)N[C@@H](C)C(=O)N[C@@H](CCC(N)=O)C(=O)NC(C)(C)C(=O)N[C@@H](CCCCNC(=O)COCCOCCNC(=O)COCCOCCNC(=O)CC[C@H](NC(=O)CC[C@H](NC(=O)CCCCCCCCCCCCCCCCC(=O)O)C(=O)O)C(=O)O)C(=O)N[C@@H](Cc1ccccc1)C(=O)N[C@H](C(=O)N[C@@H](CC(N)=O)C(=O)N[C@@H](Cc1c[nH]c2ccccc12)C(=O)N[C@@H](CC(C)C)C(=O)N[C@@H](CC(C)C)C(=O)N[C@@H](C)C(=O)N[C@@H](CCC(N)=O)C(=O)N[C@@H](CO)C(=O)N1CCC[C@H]1C(=O)NCC(=O)O)C(C)C` [Compound 86] (H-[NMeY][Aib]EGTFISDYSIALDR[Aib]AQ[Aib]K([AEEA-AEEA-γGlu-γGlu-C18 diacid])FVNWLLAQSPG-OH) had a solubility (pH 7.4) not below 15 mg/mL and a solubility (pH 7.4, aqueous buffer) not below 30 mg/mL.

Molecule `CC[C@H](C)[C@H](NC(=O)[C@H](Cc1ccccc1)NC(=O)[C@@H](NC(=O)CNC(=O)[C@H](CCC(=O)O)NC(=O)C(C)(C)NC(=O)[C@H](Cc1ccc(O)cc1)NC)[C@@H](C)O)C(=O)N[C@@H](CO)C(=O)N[C@@H](CC(=O)O)C(=O)N[C@@H](Cc1ccc(O)cc1)C(=O)N[C@@H](CO)C(=O)N[C@H](C(=O)NC(C)(C)C(=O)N[C@@H](CC(C)C)C(=O)N[C@@H](CC(=O)O)C(=O)N[C@@H](CCCNC(=N)N)C(=O)NC(C)(C)C(=O)N[C@@H](CCCCNC(=O)COCCOCCNC(=O)COCCOCCNC(=O)CC[C@H](NC(=O)CC[C@H](NC(=O)CCCCCCCCCCCCCCCCC(=O)O)C(=O)O)C(=O)O)C(=O)N[C@@H](CCC(N)=O)C(=O)NC(C)(C)C(=O)N[C@@H](CC(=O)O)C(=O)N[C@@H](Cc1ccccc1)C(=O)N[C@H](C(=O)N[C@@H](CC(N)=O)C(=O)N[C@@H](Cc1c[nH]c2ccccc12)C(=O)N[C@@H](CC(C)C)C(=O)N[C@@H](CC(C)C)C(=O)N[C@@H](C)C(=O)N[C@@H](CCC(N)=O)C(=O)N[C@@H](CO)C(=O)N1CCC[C@H]1C(=O)NCC(=O)O)C(C)C)[C@@H](C)CC` [Compound 87] (H-[NMeY][Aib]EGTFISDYSI[Aib]LDR[Aib]K([AEEA-AEEA-γGlu-γGlu-C18 diacid])Q[Aib]DFVNWLLAQSPG-OH) showed a solubility (pH 7.4) not below 15 mg/mL and a solubility (pH 7.4, aqueous buffer) not below 30 mg/mL.

Regarding `CC[C@H](C)[C@H](NC(=O)[C@H](Cc1ccccc1)NC(=O)[C@@H](NC(=O)CNC(=O)[C@H](CCC(=O)O)NC(=O)C(C)(C)NC(=O)[C@H](Cc1ccc(O)cc1)NC)[C@@H](C)O)C(=O)N[C@@H](CO)C(=O)N[C@@H](CC(=O)O)C(=O)N[C@@H](Cc1ccc(O)cc1)C(=O)N[C@@H](CO)C(=O)N[C@H](C(=O)NC(C)(C)C(=O)N[C@@H](CC(C)C)C(=O)N[C@@H](CC(=O)O)C(=O)N[C@@H](CCCNC(=N)N)C(=O)NC(C)(C)C(=O)N[C@@H](C)C(=O)N[C@@H](CCC(N)=O)C(=O)NC(C)(C)C(=O)N[C@@H](CCCCNC(=O)COCCOCCNC(=O)COCCOCCNC(=O)CC[C@H](NC(=O)CC[C@H](NC(=O)CCCCCCCCCCCCCCCCC(=O)O)C(=O)O)C(=O)O)C(=O)N[C@@H](Cc1ccccc1)C(=O)N[C@H](C(=O)N[C@@H](CC(N)=O)C(=O)N[C@@H](Cc1c[nH]c2ccccc12)C(=O)N[C@@H](CC(C)C)C(=O)N[C@@H](CC(C)C)C(=O)N[C@@H](C)C(=O)N[C@@H](CCC(N)=O)C(=O)N[C@@H](CCCNC(=N)N)C(=O)N1CCC[C@H]1C(=O)N[C@@H](CO)C(=O)N[C@@H](CO)C(=O)NCC(=O)N[C@@H](C)C(=O)N1CCC[C@H]1C(=O)N1CCC[C@H]1C(=O)N1CCC[C@H]1C(=O)N[C@@H](CO)C(N)=O)C(C)C)[C@@H](C)CC` [Compound 89] (H-[NMeY][Aib]EGTFISDYSI[Aib]LDR[Aib]AQ[Aib]K([AEEA-AEEA-γGlu-γGlu-C18 diacid])FVNWLLAQRPSSGAPPPS-NH2), the solubility by setting is: under setting [1], not below 60 mg/mL; under setting [2], not below 15 mg/mL.

As for `CC[C@H](C)[C@H](NC(=O)[C@H](Cc1ccccc1)NC(=O)[C@@H](NC(=O)CNC(=O)[C@H](CCC(=O)O)NC(=O)C(C)(C)NC(=O)[C@H](Cc1ccc(O)cc1)NC)[C@@H](C)O)C(=O)N[C@@H](CO)C(=O)N[C@@H](CC(=O)O)C(=O)N[C@@H](Cc1ccc(O)cc1)C(=O)N[C@@H](CO)C(=O)N[C@H](C(=O)NC(C)(C)C(=O)N[C@@H](CC(C)C)C(=O)N[C@@H](CC(=O)O)C(=O)N[C@@H](CCCNC(=N)N)C(=O)NC(C)(C)C(=O)N[C@@H](C)C(=O)N[C@@H](CCC(N)=O)C(=O)NC(C)(C)C(=O)N[C@@H](CCCCNC(=O)COCCOCCNC(=O)COCCOCCNC(=O)CC[C@H](NC(=O)CC[C@H](NC(=O)CCCCCCCCCCCCCCCCC(=O)O)C(=O)O)C(=O)O)C(=O)N[C@@H](Cc1ccccc1)C(=O)N[C@H](C(=O)N[C@@H](CC(N)=O)C(=O)N[C@@H](Cc1c[nH]c2ccccc12)C(=O)N[C@@H](CC(C)C)C(=O)N[C@@H](CC(C)C)C(=O)N[C@@H](C)C(=O)N[C@@H](CCC(N)=O)C(=O)N[C@@H](CO)C(=O)N1CCC[C@H]1C(=O)N[C@@H](CO)C(=O)N[C@@H](CO)C(=O)NCC(=O)N[C@@H](C)C(=O)N1CCC[C@H]1C(=O)N1CCC[C@H]1C(=O)N1CCC[C@H]1C(=O)N[C@@H](CO)C(N)=O)C(C)C)[C@@H](C)CC` [Compound 90] (H-[NMeY][Aib]EGTFISDYSI[Aib]LDR[Aib]AQ[Aib]K([AEEA-AEEA-γGlu-γGlu-C18 diacid])FVNWLLAQSPSSGAPPPS-NH2), the solubility by setting is: under setting [1], not below 60 mg/mL; under setting [2], not below 15 mg/mL.
